Results on 14 compounds are retold here after ChEMBL document CHEMBL1201862, “PubChem BioAssay data set” (2004).

Molecules are shown by their SMILES.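 Compound exposure: 48 hours, 5 concentrations, 96-well plates. GI50 is the concentration that inhibits growth by half.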 Activity calls are given as the source filed them. Cut-off read from the data, not from the text of the source: active = GI50 up to about 1.1 µM and inactive = higher.

What all share (assay): inhibition of tumour cell growth, NCI panel, 48 h
In experiment [1] the test system is PC-3.
Experiment [2] relates to BT-549.
In experiment [3] the test system is EKVX.
For experiment [4], the system named is NCI-H226.
The subject of experiment [5] is Hs-578T.
For experiment [6], the system named is SK-MEL-28.
Experiment [7] concerns SNB-75.
The test system of experiment [8] is RXF 393.
The test system of experiment [9] is A498.
Experiment [10] relates to MDA-N.
Experiment [11] has as its system A549.
In experiment [12] the test system is SF-539.
The subject of experiment [13] is HCT-15.
Experiment [14] deals with MDA-MB-435.
The test system of experiment [15] is SF-268.
Experiment [16] deals with NCI-H460.
Experiment [17] relates to T47D.

Consider `CN1C(=O)[C@@H]2[C@@H]3c4ccccc4N(S(=O)(=O)C(F)(F)F)[C@@H]3c3[nH]c4ccccc4c3[C@@H]2C1=O`, for which the GI50 in experiment [1] was 8.47 µM (inactive); in experiment [2], > 100 µM (inactive); in experiment [3], 5.74 µM (inactive); in experiment [4], 5.52 µM (inactive); in experiment [5] it was 19.7 µM (inactive); in experiment [6] it was > 100 µM (inactive). Moreover, the GI50 in experiment [7] was 13.2 µM (inactive); in [8], 10.3 µM (inactive); in experiment [9], > 100 µM (inactive); in experiment [10], > 100 µM (inactive); in experiment [11], 11.2 µM (inactive); in experiment [12], > 100 µM (inactive). The GI50 in [13] was 16.9 µM; in [14], > 100 µM (inactive); in experiment [15] it was > 100 µM (inactive); in experiment [16], 21.5 µM (inactive).
As to `OCCN1c2ccccc2Sc2ccccc21`, the GI50 in experiment [1], in experiment [2], in experiment [5], in experiment [6], in [7] and in experiment [10] was > 10 µM (inactive) each time. For the same compound, the GI50 is > 10 µM (inactive) in [11]; > 10 µM (inactive) in experiment [12]; more than 10 µM in experiment [13]; > 10 µM (inactive) in experiment [14]; > 10 µM (inactive) in experiment [15].
For `Oc1cn(-c2ccc(Cl)cc2)nc1-c1nnc(-c2ccccc2)o1`, the GI50 in experiment [1] was 1.43 µM (inactive); in experiment [3], 1.16 µM (inactive); in [4], 0.931 µM (active); in [5], 0.484 µM (active); in experiment [6], 15.2 µM (inactive); in [7] it was > 22.6 µM (inactive). Also, the GI50 in experiment [8] is 1.14 µM (inactive); in [9], 9.4 µM (inactive); in experiment [11], 0.118 µM (active); in experiment [17], 3.86 µM (inactive); in experiment [12], 0.411 µM (active); in experiment [13], 0.262 µM. The GI50 in experiment [14] is 0.152 µM (active); in experiment [15], 0.34 µM (active); in [16] it was 0.236 µM (active).
Turning to `Nc1nc(Cl)cc(NCC2(CCO)CCC2)n1`, the GI50 in [1] was > 100 µM (inactive); in experiment [2] it was 32.7 µM (inactive); in experiment [3], 59.4 µM (inactive); in experiment [4], > 100 µM (inactive); in experiment [5], > 100 µM (inactive); in [6], > 100 µM (inactive). The GI50 is > 10 µM (inactive) in experiment [7]; 80.5 µM (inactive) in experiment [8]; > 100 µM (inactive) in [10]; > 100 µM (inactive) in [11]; 22.2 µM (inactive) in experiment [17]; > 100 µM (inactive) in experiment [12]. Besides, the GI50 was more than 100 µM in experiment [13], > 100 µM (inactive) in experiment [14] and > 100 µM (inactive) in [16].
As for `CCc1ccc(COC(=O)C2=C(C)NC(C)=C(C(=O)OCc3ccc(CC)cn3)C2C2=COCCO2)nc1`, the GI50 in experiment [1] was 16 µM (inactive); in experiment [2], 14.4 µM (inactive); in experiment [3], 12.7 µM (inactive); in experiment [4], 16.2 µM (inactive); in experiment [5] it was 14 µM (inactive); in experiment [6] it was 18.5 µM (inactive). Moreover, the GI50 in [7] is 14.4 µM (inactive); in [8], 15.4 µM (inactive); in experiment [11] it was 25.2 µM (inactive); in experiment [17] it was 11.3 µM (inactive); in [12], 14.4 µM (inactive); in experiment [13] it was 22.7 µM. In addition, the values for the GI50 in experiment [14], in experiment [15] and in experiment [16] were 19.5 µM (inactive), 27.4 µM (inactive) and 31.5 µM (inactive), respectively.
For the compound `CN(C)/N=N/c1ccc(NC=O)cc1`, the GI50 in experiment [1], in [2], in experiment [3], in [6], in experiment [7] and in experiment [8] was > 100 µM (inactive) each time. Also, the GI50 in experiment [9] is > 100 µM (inactive); in [10] it was > 100 µM (inactive); in experiment [11] it was > 100 µM (inactive); in [17] it was 39.6 µM (inactive); in experiment [12], > 100 µM (inactive); in [13] it was more than 100 µM. Also, the GI50 in experiment [14] is > 100 µM (inactive); in experiment [15], 0.456 µM (active); in experiment [16], > 100 µM (inactive).
In the case of `O=C(C1C(c2ccccc2)N1C(c1ccccc1)c1ccccc1)C1C(c2ccccc2)N1C(c1ccccc1)c1ccccc1` (stereo not drawn), the GI50 is 23.9 µM (inactive) in experiment [1]; 48.2 µM (inactive) in experiment [3]; 20.2 µM (inactive) in [5]; 15.7 µM (inactive) in [6]; 45.6 µM (inactive) in experiment [7]; 28.9 µM (inactive) in [10]. The GI50 in experiment [11] is 39 µM (inactive); in experiment [17], 28.4 µM (inactive); in experiment [12], 20 µM (inactive); in experiment [13], more than 10 µM; in experiment [14], 36.4 µM (inactive); in experiment [15], 24.7 µM (inactive). Besides, the GI50 in experiment [16] was 15.5 µM (inactive).
Consider `C=C[C@@](C)(/C=C/c1ccc(O)cc1)CCC=C(C)C` [BAKUCHIOL], for which the GI50 is 16.8 µM (inactive) in experiment [1]; 19 µM (inactive) in experiment [4]; 20.9 µM (inactive) in experiment [5]; 20 µM (inactive) in experiment [6]; 14 µM (inactive) in [7]; 21.2 µM (inactive) in [9]. The GI50 in [10] was 17.3 µM (inactive); in experiment [11] it was 17.8 µM (inactive); in [17] it was 14 µM (inactive); in experiment [13] it was 16.8 µM; in experiment [14], 18.2 µM (inactive); in experiment [16] it was 15.6 µM (inactive).
Turning to `O=S(=O)(O)c1ccc2c(/N=N/c3cccc4ccccc34)c(O)c(S(=O)(=O)O)cc2c1`, the GI50 in experiment [1], in experiment [2], in experiment [3], in [4], in experiment [5] and in experiment [6] was > 100 µM (inactive) throughout. In addition, the GI50 in [7] is > 100 µM (inactive); in [8], > 100 µM (inactive); in experiment [10], > 100 µM (inactive); in experiment [11] it was > 100 µM (inactive); in experiment [17] it was > 100 µM (inactive); in experiment [13], more than 100 µM. Also, the GI50 in [14] and in experiment [15] was > 100 µM (inactive) each time.
Regarding `CN(C)N1C(=O)S/C(=C\c2ccc([N+](=O)[O-])cc2)C1=O`, the GI50 in [1] is > 100 µM (inactive); in [3], > 100 µM (inactive); in experiment [4], > 100 µM (inactive); in [5], > 100 µM (inactive); in experiment [6] it was > 100 µM (inactive); in experiment [7] it was 0.0458 µM (active). The GI50 is > 100 µM (inactive) in experiment [8]; > 100 µM (inactive) in experiment [9]; > 100 µM (inactive) in [10]; > 100 µM (inactive) in experiment [11]; 65.5 µM (inactive) in experiment [17]; > 100 µM (inactive) in experiment [12]. Moreover, the GI50 in experiment [13] was more than 100 µM; in experiment [14], > 100 µM (inactive); in [15], > 100 µM (inactive); in experiment [16], > 100 µM (inactive).
As for `Cc1ccc2c(O)cc(-c3sccc3C)nc2n1`, the GI50 was 0.426 µM (active) in experiment [1]; 4.27 µM (inactive) in experiment [2]; 4.43 µM (inactive) in [3]; 1.38 µM (inactive) in experiment [4]; 0.794 µM (active) in experiment [5]; 0.726 µM (active) in [7]. For the same compound, the GI50 in experiment [8] is 1.31 µM (inactive); in experiment [9] it was 0.562 µM (active); in experiment [10], 0.106 µM (active); in experiment [11] it was 0.612 µM (active); in [12], 0.474 µM (active); in experiment [13] it was 0.406 µM. The GI50 in [14] is 0.131 µM (active); in [15], 1.86 µM (inactive); in experiment [16], 0.44 µM (active).
As to `CCOC(=O)CNC(=O)C(CSCc1ccc(Br)cc1)NC(=O)CCC(N)C(=O)OCC` (stereo not drawn), the GI50 in experiment [1], in [2], in experiment [3], in [5], in experiment [6] and in [7] was > 50 µM (inactive) in each case. The GI50 is > 50 µM (inactive) in experiment [8]; > 50 µM (inactive) in experiment [10]; > 50 µM (inactive) in [11]; > 50 µM (inactive) in experiment [12]; more than 50 µM in [13]; > 50 µM (inactive) in [14]. Besides, the GI50 in [15] and in experiment [16] was > 50 µM (inactive) in each case.
As to `CN1c2ccccc2SC2C(c3ccccc3)=NOC21` (stereo not drawn), the GI50 is 18 µM (inactive) in experiment [1]; 26.6 µM (inactive) in experiment [2]; 24.9 µM (inactive) in [3]; 47.6 µM (inactive) in experiment [4]; 29 µM (inactive) in experiment [5]; 31.1 µM (inactive) in experiment [6]. The GI50 in experiment [7] is 16 µM (inactive); in [8], > 100 µM (inactive); in experiment [9], 28.4 µM (inactive); in experiment [10] it was 22.9 µM (inactive); in [11] it was 36.5 µM (inactive); in experiment [17] it was 21.5 µM (inactive). Besides, the GI50 is 27.7 µM (inactive) in [12], 15.5 µM in [13], 51.8 µM (inactive) in experiment [15] and 28.5 µM (inactive) in experiment [16].
In the case of `Cc1cc(C)c(/C=C2\C(=O)Nc3ccccc32)[nH]1` [SEMAXANIB], the GI50 in experiment [1] was > 100 µM (inactive); in experiment [2], > 100 µM (inactive); in experiment [3], 2.81 µM (inactive); in experiment [4], 1.22 µM (inactive); in [6] it was > 100 µM (inactive); in experiment [7], 0.906 µM (active). Also, the GI50 was > 100 µM (inactive) in experiment [8]; > 100 µM (inactive) in experiment [9]; > 95.9 µM (inactive) in [10]; > 65.3 µM (inactive) in [11]; > 100 µM (inactive) in experiment [17]; > 100 µM (inactive) in experiment [12]. For the same compound, the GI50 in [13] is 34.8 µM; in [14] it was > 96.4 µM (inactive); in [15], > 100 µM (inactive); in experiment [16], > 57.8 µM (inactive).
